Test results taken from PMC9574860, “Chemical Toolkit for PARK7: Potent, Selective, and High-Throughput” (Journal of Medicinal Chemistry, 2022).
Where two headings read alike, the source gives them in different places.

What was measured:
PARK7 and UCHL1 = test: Labeling of a mixture of purified recombinant UCHL1 and PARK7 with probe 8RK59 (SDS-PAGE, fluorescence scanning); assay type: binding; conditions: UCHL1 and PARK7 1 μM each, probe 2 μM, 30 min 37 °C
Description: To determine the labeling efficiency of 8RK59 for both UCHL1 and PARK7, a mixture of equal amounts of purified recombinant UCHL1 and PARK7 (1 μM each) is labeled with 8RK59 (2 μM). […] To gain more insight into the inhibitor binding mode and to guide the design of novel PARK7 inhibitors, the crystal structure of the PARK7–8RK64 complex was solved with 1.21 Å resolution (Figure 2C, Table S1, PDB 7PA2). The structure is obtained as a monomer and compared to its apo structure (PDB 1J42). […] Globally, the inhibitor fits into a groove between two α-helices formed by residues 76–84 and 126–134 (Figure 2C, left panel). The covalent bond between 8RK64 and PARK7 is clearly visible (Figure 2C, middle panel). The cyanimide moiety of the inhibitor reacted to active site Cys106, thereby forming an isothiourea linkage, which is similar to what has been observed for the reaction of cyanamide-based and azanitrile inhibitors with cathepsins.[33],[34] The isothiourea moiety is stabilized by an H-bond between the NH and the carboxylate side chain of the nearby Glu18. Another interaction is found between the thiazole ring amine in the inhibitor and the amide NH2 of the Asn76 side chain. Hydrogen bonding between the carbonyl of the azidoacetyl moiety and the Leu128 backbone carbonyl via a water molecule is also observed. […]

UCHL1 [1] = target: T1, UCHL1 (Homo sapiens, UniProt P09936); test: Gel-based competition assay with probe 8RK59, UCHL1 band; assay type: biochemical; conditions: compound 2 μM, 1 h; PARK7 and UCHL1 1 μM each; then 8RK59 2 μM 30 min; Figure 3B
T1 sequence (P09936 1-223): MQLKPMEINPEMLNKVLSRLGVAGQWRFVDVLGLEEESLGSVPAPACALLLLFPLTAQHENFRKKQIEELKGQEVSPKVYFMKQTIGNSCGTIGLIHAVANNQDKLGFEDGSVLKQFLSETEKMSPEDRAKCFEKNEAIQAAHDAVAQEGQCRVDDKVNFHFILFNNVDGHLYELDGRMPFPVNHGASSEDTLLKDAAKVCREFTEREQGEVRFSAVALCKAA
Description: To assess the inhibitory potency and selectivity of these compounds toward PARK7 and UCHL1, we performed a gel-based competition assay (Figure 3A).[36] A mixture of equal amounts of PARK7 and UCHL1 (1 μM) was treated with each of the synthesized compounds (2 μM) for 1 h, followed by incubation with fluorescent probe 8RK59 (2 μM) for 30 min. Samples were resolved by SDS-PAGE, and the gel was scanned for fluorescence. Inhibition of PARK7 or UCHL1 is reflected by the disappearance of their corresponding bands (Figure 3B). […] The inhibition potential of JYQ-88 against PARK7 was assessed in a similar assay where PARK7 was incubated with a serial dilution of JYQ-88 before treatment with probe 8RK59 (Figure 3C). A clear inhibition is visible at 0.5 μM, and full inhibition is achieved between 1 and 2 μM. […] The selectivity of JYQ-88 between UCHL1 and PARK7 was further confirmed in a direct competition assay between equal amounts of PARK7 and UCHL1 (Figure 3F). PARK7 inhibition was observed starting from 0.5 μM JYQ-88, whereas inhibition of UCHL1 was only detected at 20 μM. Since JYQ-88 and 8RK64 are enantiomers, we assumed that the interactions with PARK7 should be similar. To investigate how the chiral center influences the selectivity, we solved the crystal structure of the PARK7−JYQ-88 complex with 1.42 Å resolution (Figure 3G, Table S1, PDB 7PA3). The global positioning of the inhibitor in between the two α-helices was similar to that for 8RK64. […] This way, the thiazolo-pyridine part of JYQ-88 is bound in a similar manner as 8RK64 and the earlier observed interactions are largely the same. The formation of the isothiourea moiety, stabilized by the interaction with Glu18, and the interaction between the thiazole amine and the amide NH2 of the Asn76 side chain are still present. However, the interaction between the azidoacetyl carbonyl with the Leu128 backbone carbonyl can no longer be observed due to the rotation of the azidoacetyl moiety. The Lys132 residue also seems to have rotated (compared to Figure 2C).
The assay was performed in Tris buffer as described above.

UCHL1 [2] = target: T1, UCHL1; test: UCHL1 activity assay (Ub-Rho-Morpholine or Ub-AMC substrate); assay type: biochemical; conditions: UCHL1 1 nM, 1 h preincubation
Description: The assay was performed in a buffer containing 50 mM Tris·HCl, 100 mM NaCl at pH 7.5, 2.0 mM cysteine, 1 mg/mL 3-[(3-cholamidopropyl)dimethylammonio]propanesulfonic acid (CHAPS), and 0.5 mg/mL bovine serum albumin and conducted in a 384-well plate (Corning 3820) with a reaction volume 20 μL in triplicate. The compounds were dissolved in DMSO as 10, 1, and 0.1 mM stock solutions and were transferred to obtain a 12-point serial dilution of 0.05 to 200 μM. Next, UCHL1 (15 μL, final concentration of 1 nM) was dispensed with a Biotek MultiFlowFX liquid dispenser and incubated for 1 h, followed by dispensing the substrate Ub-Rho-Morpholine or Ub-AMC (5 μL, final concentration of 400 nM). The FI signal was monitored with a BMG Labtech PHERAstar plate reader (λex/em 487/535 nm or λex/em 350/450 nm) for 1 h. N-Ethylmaleimide (NEM, 10 mM) was used as a positive control (100% inhibition), and DMSO was used as a negative control (0% inhibition). All samples were normalized to the positive and negative controls and plotted against the inhibitor concentrations (in μM) using the built-in equation “[inhibitor] vs response – variable slope (four parameters), least-squares fit” with constraints “Bottom = 0” and “Top = 100” in GraphPad Prism 9.0.1 software to obtain the IC50 values.

DUBs = test: DUB activity profiling in HEK293T cell lysate with general DUB probe Rho-Ub-PA; assay type: biochemical; conditions: compound 5 μM 1 h 37 °C, then Rho-Ub-PA 30 min, Figure S5
Description: Due to the structural similarity of PARK7 inhibitor JYQ-88 and UCHL1 inhibitor 8RK64 and the fact that many cyanimide-containing compounds have been identified as DUB inhibitors,[35],[37] we investigated the inhibitory potential of JYQ-88 and JYQ-92 toward DUBs. After treating the HEK293T cell lysate with JYQ-88 and JYQ-92, along with UCHL1 inhibitors, 6RK73 and 8RK64 as controls,[38] the remaining activity of DUBs was determined using the general DUB probe Rho-Ub-PA (Figure S5).[39]
Figure S5. Fluorescence labeling of DUBs to investigate their remaining activity by Rh-Ub-
PA after the treatment with PARK7 inhibitor JYQ-88 and probe JYQ-92. UCHL1 inhibitors,
6RK73 and 8RK64, were used as a control. HEK293T cell lysate was treated with 5 μM final
MOPS SDS running buffer (Novex, NuPAGE) and visualized by fluorescence scanning on a
Typhoon FLA 9500 (GE Healthcare Life Sciences) using a Rhodamine channel (λex/em
(1 picture or pasted object on this page, not shown here)

UCHL1 [3] = target: T1, UCHL1; test: JYQ-92 labeling in HEK293T cell lysate with UCHL1 knockdown; conditions: HEK293T lysate with PARK7 or UCHL1 knockdown, probe 1 μM; Figure 4D
Description: (§1) We next investigated the ability of JYQ-92 to label PARK7 activity in HEK293T cell lysates by treating with the increasing concentration of JYQ-92 (0–5 μM) for 1 h. […] To study its specificity toward PARK7 compared to UCHL1 in more detail, HEK293T cell lysates where we knockdown PARK7 or UCHL1 were treated with 1 μM final concentration of JYQ-92.
(§2) The samples were kept on ice and sonicated using 10 cycles of 30 s pulse on and 30 s pulse off (Bioruptor, Diagenode). […] For the labeling experiments, the prepared cell lysate was incubated with an indicated concentration of JYQ-92 in each experiment for 1 h at 37 °C. The reactions were stopped by adding NuPAGE LDS sample buffer (4×).

PARK7 [4] = target: T2, PARK7 (Homo sapiens, UniProt Q99497); test: Probe JYQ-92 labeling of endogenous PARK7 in HEK293T cell lysate; conditions: 0–5 μM probe, 1 h, Figure 4C
T2 sequence (Q99497 1-189): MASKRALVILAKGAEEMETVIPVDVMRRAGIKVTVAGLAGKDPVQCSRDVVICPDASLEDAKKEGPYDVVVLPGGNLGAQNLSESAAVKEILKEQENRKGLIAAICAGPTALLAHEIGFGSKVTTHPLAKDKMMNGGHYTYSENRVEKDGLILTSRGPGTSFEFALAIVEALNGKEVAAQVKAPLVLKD
Description: as §1, §2

PARK7 [5] = target: T2, PARK7; test: Probe labeling of purified recombinant PARK7 (SDS-PAGE, fluorescence scanning); assay type: binding; set-up: GST (N, cleaved yes); made in house; host or cells: E. coli BL21(DE3) Rosetta2
Source text: PARK7 inhibitor JYQ-88 was further converted into activity-based probes by installing SulfoCy5, Rhodamine110, or BodipyFL. We took advantage of the azide moiety in JYQ-88 and conjugated alkyne versions of these dyes using the copper(I)-catalyzed azide alkyne cycloaddition (CuAAC) to obtain compounds JYQ-92, JYQ-93, and JYQ-107 (Scheme 2). We next investigated the ability of the probes to label and visualize PARK7. […] The SulfoCy5 probe JYQ-92 and Rhodamine110 probe JYQ-107 labeled PARK7 already at 1 μM, while the BodipyFL probe JYQ-93 was less efficient than the other probes as PARK7 labeling was only observed from 5 μM.
All the labeling assays were performed in Tris buffer (50 mM Tris–HCl, 150 mM NaCl, 2 mM TCEP, pH 7.5). For labeling with the 8RK59 probe, 1 μM final concentrations of UCHL1 and PARK7 were individually or together incubated with 2 μM final concentrations of 8RK59 for 30 min at 37 °C, followed by protein visualization. For labeling with JYQ-92, JYQ-93, and JYQ-107, 1 μM final concentration of PARK7 was incubated with different concentrations (0, 0.1, 0.5, 1, 2, 5, and 10 μM) of the indicated probes for 1 h at 37 °C. […] These samples were resolved by SDS-PAGE using precast Bis-Tris gels (Invitrogen, NuPAGE) with MES SDS running buffer (Novex, NuPAGE).

| Inhibition of UCHL1 (disappearance of 8RK59-labeled band) (UCHL1 [1]) | IC50 (UCHL1 [2]; Figure 3E, read-out: UCHL1 IC50) [µM] | IC50 (UCHL1 [2]; read-out: UbRhoMP assay UCHL1 IC50) [µM] | Binding to UCHL1 in the cell lysate (UCHL1 [3]) | Probe concentration at which a clear PARK7 band (20 kDa) was observed (PARK7 [4]) [µM] | Binding to wild-type PARK7 (PARK7 [5]; probe 2 μM, 1 h, Figure 4B) | Probe concentration from which PARK7 labeling was observed (PARK7 [5]; purified PARK7 1 μM, 1 h 37 °C, Figure 4A) [µM] | Compound | Labeling of PARK7 and UCHL1 by probe (PARK7 and UCHL1) | Effect on remaining DUB activity (Rho-Ub-PA labeled bands) (DUBs) |
| --- | --- | --- | --- | --- | --- | --- | --- | --- | --- |
|  |  |  |  |  |  |  | CC1=CC(C)=[N+]2C1=C(CCCCc1cn(CC(=O)N3CCc4nc(NC(=O)[C@H]5CCN(C#N)C5)sc4C3)nn1)c1c(C)cc(C)n1[B-]2(F)F [8RK59] | nearly equal extent |  |
| fully inhibit | 0.23 |  |  |  |  |  | N#CN1CC[C@H](C(=O)Nc2nc3c(s2)CN(C(=O)CN=[N+]=[N-])CC3)C1 [8RK64, reference compound] |  | disappearance of the UCHL1 band |
|  |  | 19.8 | not to UCHL1 | 0.5 | only binds to the active wild-type PARK7 | 1 | CC[N+]1=C(/C=C/C=C/C=C2/N(CCCCCC(=O)NCCCc3cn(CC(=O)N4CCc5nc(NC(=O)[C@@H]6CCN(C#N)C6)sc5C4)nn3)c3ccc(S(=O)(=O)O)cc3C2(C)C)C(C)(C)c2cc(S(=O)(=O)[O-])ccc21 [JYQ-92] |  | no influence on DUB activity |
